Measured values taken from BindingDB's records for patent US20230303553 (Jiangsu Tasly Diyi Pharmaceutical, 2023).

Biological target: Cyclin-dependent kinase 6 (Homo sapiens, UniProt Q00534)
Assay: CDK6 Kinase Activity Analysis and Detection Method

Cyclin-dependent kinase 6, sequence (Q00534 whole entry): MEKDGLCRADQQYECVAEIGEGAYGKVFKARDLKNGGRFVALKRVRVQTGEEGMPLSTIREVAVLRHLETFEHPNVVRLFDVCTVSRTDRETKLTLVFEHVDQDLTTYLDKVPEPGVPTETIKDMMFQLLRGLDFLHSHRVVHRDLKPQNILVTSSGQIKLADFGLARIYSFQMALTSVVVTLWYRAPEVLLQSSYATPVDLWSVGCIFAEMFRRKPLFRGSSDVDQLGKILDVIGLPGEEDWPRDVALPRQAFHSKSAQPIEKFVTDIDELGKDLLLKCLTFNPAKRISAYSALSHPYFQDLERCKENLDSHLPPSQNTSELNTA

CCN1CCN(C(=O)c2ccc(Nc3ncc(F)c(-c4ccc5nc(C)sc5c4)n3)nc2)CC1 [US20230303553, Example 12]
IC50: 127 nM
